Assay results: patent publication US10500198B2, “Bis-benzylidine piperidone proteasome inhibitor with anticancer activity” (The Johns Hopkins University, priority 2013, dated 2019)

Key:
HeLa cells [1] = assay: Cell surface HSP90 staining; format: cell-based, human; details: 24 hr
Description: Cell surface HSP90 was detected by staining with purified anti-HSP90 mAb (Stressgen), followed by PE-conjugated anti-mouse IgG1. The data were acquired with a FACSCalibur and analyzed using CellQuest software.

[2] = Pharmacokinetic measurements, plasma; format: in vivo, mouse; details: 20 mg/kg oral, BALB/c mice
[3] = Tissue levels 48 hr after single i.p. dose; format: in vivo, mouse; details: 48 hr after single i.p. dose of 10 mg/kg
Description: Tissue was harvested at 48 hr after single-dose intraperitoneal administration in non-tumor bearing mice. Blood was collected by cardiac puncture under anesthesia into heparinized syringes and centrifuged to obtain plasma. Tissues were rapidly dissected and snap frozen in liquid nitrogen. Samples were stored frozen at −70° C. until analysis. […] Tissue homogenates were prepared at a concentration of 200 mg/mL in PBS and further diluted 1:10 in mouse plasma before extraction using acetonitrile containing temazepam (100 ng/mL). Separation was achieved on Waters X-Terra™ C18 (50 mm×2.1 mm i.d., 3 μm) at room temperature using isocratic elution with acetonitrile/water mobile phase (70:30, v/v) containing 0.1% formic acid at a flow rate of 0.2 mL/min. […] Samples were quantitated over the assay range of 10 to 1000 ng/mL or 0.6 to 60 μg/g. […] Cmax and Tmax were the observed values from the mean data. The AUClast was calculated using the log-linear trapezoidal rule to the end of sample collection (AUClast) and extrapolated to infinity (AUC0-∞) by dividing the last quantifiable concentration by the terminal disposition rate constant (λz), which was determined from the slope of the terminal phase of the concentration-time profile. The half-life (T1/2) was determined by dividing 0.693 by λz. Relative bioavailability was calculated as follows: […]

[4] = tested on: purified recombinant UCH37 (with or without RPN13) or purified RP; assay: Ub-AMC hydrolysis assay; format: biochemical
Description: FIGS. 1 A-D show percent cell viability of RPMI-8226, ANBL6, and their respective in vitro selected bortezomib-resistant cell lines RPMI-8226-V10R and ANBL6-V10R as a function of 48 hr treatment with the indicated compounds. FIGS. 1 E-H show percent cell viability of indicated MM cell lines as a function of 48 hr treatment with the indicated compounds. […] Actin was used as a loading control. […] In FIG. 9C-E, purified 20S proteasomes were treated for 30 min with or without compounds (1 μM) prior to the addition of the specific fluorogenic substrate for chymotryptic (9C), tryptic (9D) or PGPH (9E) hydrolytic proteasome capacities. Mean±SD fluorescence associated with AMC released from the substrate was measured at 45 min. […] DMSO was added to all samples to a final concentration of 0.1% (upper panel). The effect of DMSO is highlighted by including ubiquitin—AMC (0.5 μM) hydrolysis with 2 nM UCH37 lacking DMSO (orange, bottom panel). In FIG. 9H, purified 19S RP (500 nM) in buffer was treated with corresponding compounds 30 min at 37° C. and AMC cleavage was measured with a fluorometer for 20 min. Ubal was used as a positive control.
Reaction mixtures contained 500 nM of the purified 19S RP (R&D Systems) in 19S enzyme assay buffer and 1 μM Ub-AMC. Release of free AMC by the enzyme reaction was determined by measuring its fluorescence at 380 nm (excitation) and 440 nm (emission). […]

HeLa cells [5] = assay: Drug combination index assay; format: cell-based, human; details: 48 hr, read-out: IC50 (single agent, Compusyn)
Description: The combination indices and a normalized isobologram were calculated using Compusyn software (www.combosyn.com).

ES-2 = assay: Cell viability after 48-hr treatment (Table 1); format: cell-based, human; details: XTT assay
Description: (§1) Cells seeded at the concentration of 1,000 cells/well for HeLa, 5,000 cells/well for ES2 and HCT116 and 10,000-20,000 cells/well for other cell lines in 100 μL medium in 96-well plate were treated with RA series compounds at specified concentrations. […]

NCl-H929 = assay: Cell viability after 48-hr treatment (Table 1); format: cell-based, human; details: XTT assay
Description: as §1

PAO3C cells = assay: Immunoblot of PAO3C pancreatic cell lysates; format: cell-based; details: 1 uM
Description: Cell lysate was subjected to immunoblot and probed for anti UB antibody. For Bax proteins levels cells were treated for 24 hr. Actin used as […].

NCI-H929 cells = assay: Active caspase-3 by FACS; format: cell-based, human; details: 0.5 μM, 8 h
Description: NCI-H929 cells were treated with RA195 (0.5 μM) and Bz(0.5 μM) for the period of 8 h. Cells were stained for PE-conjugated Caspase-3 antibody and measured active caspase-3 by FACS.

U266 cells = assay: Active caspase-3 by FACS; format: cell-based; details: 0.5 μM, 8 h
Description: U266 cells were treated with RA195 (0.5 μM) and Bz(0.5 μM) for the period of 8 h. Cells were stained for PE-conjugated Caspase-3 antibody and measured active caspase-3 by FACS.

Q: With `Cl.N[C@@H](Cc1ccccc1)C(=O)N1CC(=Cc2ccc(Cl)c(Cl)c2)C(=O)C(=Cc2ccc(Cl)c(Cl)c2)C1` [RA190, 3,5-bis(3,4-dichlorobenzylidene)-1-(S-2-amino-3-phenyl)-piperidin-4-one-HCl salt] as the compound, how does the “cells with cell-surface HSP90” value (HeLa cells [1]) read?
A: The value was 54.2%.

Q: What about the AUC [2] of the same compound?
A: The AUC was 634 ng·h/mL.

Q: What about the C1/F [2] of the same compound?
A: The C1/F was 527 mL/min/kg.

Q: What about the Cmax [2] of the same compound?
A: The Cmax was 133 ng/mL.

Q: And the T1/2β [2]?
A: Its T1/2β is 2.6 h.

Q: What about the Ud/F [2] of the same compound?
A: The Ud/F was 117.3 L/kg.

Q: And the “RA190 detected in brain” value [3]?
A: The value was “not brain”.

Q: What about the “RA190 detected in kidney” value [3] of the same compound?
A: The value was 0.61 µg/g.

Q: And the “RA190 detected in liver” value [3]?
A: The value was 0.57 µg/g.

Q: And the “RA190 detected in lung” value [3]?
A: The value was 0.66 µg/g.

Q: And the “RA190 detected in spleen” value [3]?
A: The value was 0.59 µg/g.

Q: What about the “degradation of Ub-AMC” value [4] of the same compound?
A: The value was “minimally affected”.

Q: What about the IC50 (HeLa cells [5]) of the same compound?
A: Its IC50 is 0.184 µM.

Q: What about the IC50 (ES-2) of the same compound?
A: Its IC50 is 0.75 µM.

Q: What about the IC50 (NCl-H929) of the same compound?
A: The IC50 was 0.05 µM.

Q: Which results are given for `Cl.NCCCC[C@H](NC(=O)OCC1c2ccccc2-c2ccccc21)C(=O)N1C/C(=C\c2ccc(Cl)c(Cl)c2)C(=O)/C(=C/c2ccc(Cl)c(Cl)c2)C1` [RA195]?
A: Poly Ubiquitinated proteins (PAO3C cells; 12 h): causes accumulation of Poly Ubiquitinated proteins; apoptotic protein Bax (PAO3C cells; 24 hr): elevation of apoptotic protein Bax; active caspase-3 (NCI-H929 cells): caused an increase in caspase-3 expression; active caspase-3 (U266 cells): caused an increase in caspase-3 expression
